Key:
Format in all cases: cell-based
[1] = tested on: MCF7 cells; test: Cell viability assay ([…]-GLO, 6-day treatment); details: Homo sapiens, MCF7, 144 h; MCF-7 cells, 6 days, CTG; read-out: Inhibition of Cancerous Cells IC50 MCF-7
Summary of the method: (§1)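 MCF7 (MEM) and T47D (RPMI with insulin), both with 10% FBS, at 1,000 cells/well, treated with a 10-point compound dose series for 6 days, with medium and compound refreshed once. Viability read by CellTiter-Glo luminescence.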

[2] = tested on: T47D cells; test: Cell viability assay ([…]-GLO, 6-day treatment); details: Homo sapiens, 144 h, 6 days, CTG, read-out: Inhibition of Cancerous Cells IC50 T47D
Summary of the method: as §1

[3] = target: T1, ERα (Homo sapiens, UniProt P03372); test: Protein degradation assay: ERα in MCF-7 cells via western blot; details: 6 h; for ERα Protein Degradation 1 nM: 1 nM compound; for ERα Protein Degradation 10 nM: 10 nM compound; for ERα Protein Degradation 100 nM: 100 nM compound
T1 construct: degrading an ERα in MCF-7 cells via a western blot; endogenous in cells; host or cells: MCF-7
T1 sequence (P03372 1-595): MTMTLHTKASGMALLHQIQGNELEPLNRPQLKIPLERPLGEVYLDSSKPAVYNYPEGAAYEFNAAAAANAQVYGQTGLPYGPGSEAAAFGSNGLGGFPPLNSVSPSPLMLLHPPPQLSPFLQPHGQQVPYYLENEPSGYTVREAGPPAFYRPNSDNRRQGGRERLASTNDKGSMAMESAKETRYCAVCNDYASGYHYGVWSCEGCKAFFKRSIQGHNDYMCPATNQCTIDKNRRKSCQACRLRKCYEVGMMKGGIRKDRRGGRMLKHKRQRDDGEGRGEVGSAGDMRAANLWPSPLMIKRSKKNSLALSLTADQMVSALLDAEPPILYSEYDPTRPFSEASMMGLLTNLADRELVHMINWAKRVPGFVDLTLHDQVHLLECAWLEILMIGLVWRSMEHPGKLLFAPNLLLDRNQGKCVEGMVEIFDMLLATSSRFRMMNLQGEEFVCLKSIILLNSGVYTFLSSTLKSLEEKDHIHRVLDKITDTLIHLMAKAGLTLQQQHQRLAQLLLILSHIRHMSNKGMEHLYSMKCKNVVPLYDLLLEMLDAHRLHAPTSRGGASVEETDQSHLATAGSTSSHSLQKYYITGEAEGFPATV
Summary of the method: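 MCF-7 cells in MEM/10% FBS with insulin, seeded 300,000/well, treated 6 h at set concentrations (e.g., 1 nM–1 μM). Whole-cell lysates immunoblotted for ERα with GAPDH loading control, chemiluminescent detection; percentage degradation reported in binned categories (≥50%, 25–50%, 10–25%, <10%).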

SMILES	IC50 [1] [nM]	IC50 [2] [nM]	ERα Protein Degradation 1 nM [3]	ERα Protein Degradation 10 nM [3]	ERα Protein Degradation 100 nM [3]
O=C1CCC(N2Cc3c(cc(F)cc3C3CCN(CCCCCCOc4ccc([C@@H]5c6ccc(O)cc6CC[C@@H]5c5ccccc5)cc4)CC3)C2=O)C(=O)N1 (stereo partly drawn) [Compound A2, 3-(6-Fluoro-4-(1-(6-(4-((1R,2S)-6-hydroxy-2-phenyl-1,2,3,4-tetrahydro-naphthalen-1-yl)phenoxy)hexyl)piperidin-4-yl)-1-oxoisoindolin-2-yl)piperidine-2,6-dione]	0.72	0.61	D (a percentage degradation value of less than 10%)	D (a percentage degradation value of less than 10%)	D (a percentage degradation value of less than 10%)
O=C1CCC(N2Cc3c(cc(F)cc3C3CCN(CC4CCN(c5ccc([C@@H]6c7ccc(O)cc7CC[C@@H]6c6ccccc6)cc5)CC4)CC3)C2=O)C(=O)N1 (stereo partly drawn) [Compound A3, 3-(6-Fluoro-4-(1-((1-(4-((1R,2S)-6-hydroxy-2-phenyl-1,2,3,4-tetrahydro-naphthalen-1-yl)phenyl)piperidin-4-yl)methyl)piperidin-4-yl)-1-oxoisoindolin-2-yl)piperidine-2,6-dione]	0.2	0.44	D (a percentage degradation value of less than 10%)	D (a percentage degradation value of less than 10%)	D (a percentage degradation value of less than 10%)
O=C1CCC(N2Cc3cc(C4CCN(CCCCOc5ccc([C@@H]6c7ccc(O)cc7CC[C@@H]6c6ccccc6)cc5)CC4)c(F)cc3C2=O)C(=O)N1 (stereo partly drawn) [Compound A4, 3-(6-Fluoro-5-(1-(4-(4-((1R,2S)-6-hydroxy-2-phenyl-1,2,3,4-tetrahydro-naphthalen-1-yl)phenoxy)butyl)piperidin-4-yl)-1-oxoisoindolin-2-yl)piperidine-2,6-dione]	0.06	0.08	D (a percentage degradation value of less than 10%)	D (a percentage degradation value of less than 10%)	D (a percentage degradation value of less than 10%)
O=C1CCC(N2Cc3cc(C4CCN(CCCCCCOc5ccc([C@@H]6c7ccc(O)cc7CC[C@@H]6c6ccccc6)cc5)CC4)c(F)cc3C2=O)C(=O)N1 (stereo partly drawn) [Compound A5, 3-(6-Fluoro-5-(1-(6-(4-((1R,2S)-6-hydroxy-2-phenyl-1,2,3,4-tetrahydro-naphthalen-1-yl)phenoxy)hexyl)piperidin-4-yl)-1-oxoisoindolin-2-yl)piperidine-2,6-dione]	0.37	0.22	A (a percentage degradation value of no less than 50%)	A (a percentage degradation value of no less than 50%)	A (a percentage degradation value of no less than 50%)
O=C1CCC(N2Cc3cc(C4CCN(CC5CCN(c6ccc([C@@H]7c8ccc(O)cc8CC[C@@H]7c7ccccc7)cc6)CC5)CC4)c(F)cc3C2=O)C(=O)N1 (stereo partly drawn) [Compound A6, 3-(6-fluoro-5-(1-((1-(4-((1R,2S)-6-hydroxy-2-phenyl-1,2,3,4-tetrahydro-naphthalen-1-yl)phenyl)piperidin-4-yl)methyl)piperidin-4-yl)-1-oxoisoindolin-2-yl)piperidine-2,6-dione]	4	0.47	B (a percentage degradation value of less than 50% and no less than 25%)	B (a percentage degradation value of less than 50% and no less than 25%)	D (a percentage degradation value of less than 10%)
O=C1CCC(N2Cc3c(csc3C3CCN(CC4CCN(c5ccc([C@@H]6c7ccc(O)cc7CC[C@@H]6c6ccccc6)cc5)CC4)CC3)C2=O)C(=O)N1 (stereo partly drawn) [Compound A7, 3-(1-(1-((1-(4-((1R,2S)-6-hydroxy-2-phenyl-1,2,3,4-tetrahydronaphthalen-1-yl)phenyl)piperidin-4-yl)methyl)piperidin-4-yl)-4-oxo-4H-thieno[3,4-c]pyrrol-5(6H)-yl)-piperidine-2,6-dione]	145	0.18	D (a percentage degradation value of less than 10%)	D (a percentage degradation value of less than 10%)	D (a percentage degradation value of less than 10%)
O=C1CCC(N2Cc3cc(N4CCN(CC5CCN(c6ccc([C@@H]7c8ccc(O)cc8CC[C@@H]7c7ccccc7)cc6)CC5)CC4)ccc3C2=O)C(=O)N1 (stereo partly drawn) [Compound A14, 3-(5-(4-((1-(4-((1R,2S)-6-Hydroxy-2-phenyl-1,2,3,4-tetrahydronaphthalen-1-yl)-phenyl)piperidin-4-yl)methyl)piperazin-1-yl)-1-oxoisoindolin-2-yl)piperidine-2,6-dione]	1.1	0.86	A (a percentage degradation value of no less than 50%)	A (a percentage degradation value of no less than 50%)	A (a percentage degradation value of no less than 50%)
O=C1CCC(N2Cc3c(csc3C3CCN(CCCCOc4ccc([C@@H]5c6ccc(O)cc6CC[C@@H]5c5ccccc5)cc4)CC3)C2=O)C(=O)N1 (stereo partly drawn) [Compound A19, 3-(1-(1-(4-(4-((1R,2S)-6-Hydroxy-2-phenyl-1,2,3,4-tetrahydronaphthalen-1-yl)-phenoxy)butyl)piperidin-4-yl)-4-oxo-4H-thieno[3,4-c]pyrrol-5(6H)-yl)piperidine-2,6-dione]	2.2	0.07	D (a percentage degradation value of less than 10%)	D (a percentage degradation value of less than 10%)	D (a percentage degradation value of less than 10%)

More lines, main results first:

IC50 [1] [nM]	IC50 [2] [nM]	SMILES	ERα Protein Degradation 1 nM [3]	ERα Protein Degradation 10 nM [3]	ERα Protein Degradation 100 nM [3]
0.25	0.01	Cn1nc(C2CCC(=O)NC2=O)c2ccc(OCC(=O)N3CCN(CCCCOc4ccc([C@@H]5c6ccc(O)cc6CC[C@@H]5c5ccccc5)cc4)CC3)cc21 (stereo partly drawn) [Compound B2, 3-(6-(2-(4-(4-(4-((1R,2S)-6-hydroxy-2-phenyl-1,2,3,4-tetrahydronaphthalen-1-yl)phenoxy)butyl)piperazin-1-yl)-2-oxoethoxy)-1-methyl-1H-indazol-3-yl)piperidine-2,6-dione]	B (a percentage degradation value of less than 50% and no less than 25%)	B (a percentage degradation value of less than 50% and no less than 25%)	C (a percentage degradation value of less than 25% and no less than 10%)
1.2	0.48	O=C1CCC(c2cccc(OCC(=O)N3CCN(CCCCOc4ccc([C@@H]5c6ccc(O)cc6CC[C@@H]5c5ccccc5)cc4)CC3)c2)C(=O)N1 (stereo partly drawn) [Compound B5, 3-(3-(2-(4-(4-(4-((1R,2S)-6-hydroxy-2-phenyl-1,2,3,4-tetrahydronaphthalen-1-yl)phenoxy)butyl)piperazin-1-yl)-2-oxoethoxy)phenyl)piperidine-2,6-dione]	D (a percentage degradation value of less than 10%)	D (a percentage degradation value of less than 10%)	D (a percentage degradation value of less than 10%)
0.22	0.18	O=C1CCC(c2ccc(OCC(=O)N3CCN(CCCCOc4ccc([C@@H]5c6ccc(O)cc6CC[C@@H]5c5ccccc5)cc4)CC3)cc2)C(=O)N1 (stereo partly drawn) [Compound B6, 3-(4-(2-(4-(4-(4-((1R,2S)-6-hydroxy-2-phenyl-1,2,3,4-tetrahydronaphthalen-1-yl)phenoxy)butyl)piperazin-1-yl)-2-oxoethoxy)phenyl)piperidine-2,6-dione]	C (a percentage degradation value of less than 25% and no less than 10%)	C (a percentage degradation value of less than 25% and no less than 10%)	C (a percentage degradation value of less than 25% and no less than 10%)
1.7	0.49	O=C1CCN(c2cccc(OCC(=O)N3CCN(CCCCOc4ccc([C@@H]5c6ccc(O)cc6CC[C@@H]5c5ccccc5)cc4)CC3)c2)C(=O)N1 [Compound B9, 1-(3-(2-(4-(4-(4-((1R,2S)-6-hydroxy-2-phenyl-1,2,3,4-tetrahydronaphthalen-1-yl)phenoxy)butyl)piperazin-1-yl)-2-oxoethoxy)phenyl)dihydropyrimidine-2,4(1H,3H)-dione]	D (a percentage degradation value of less than 10%)	D (a percentage degradation value of less than 10%)	D (a percentage degradation value of less than 10%)
